Data on two compounds can be found in patent US7998460B2, “Prevention of deficits in neurogenesis with anti-inflammatory agents” (The Board of Trustees of the Leland Stanford Junior …, priority 2003, dated 2011).

Entries after “also recorded” stand apart in the source; their conditions may differ.

Holding throughout (assay type): in vivo, mouse
Series [1] deals with hippocampal neurogenesis. The series can be described thus: Oral NSAID course and LPS challenge, hippocampal neurogenesis at day 28 in mice. The conditions noted are these: oral NSAID course, LPS 5 mg/kg.
Protocol: Mice were started on a 16 day preventative course of oral NSAID and then challenged with a single IP injection of LPS (5 mg/kg) and then BrdU (50 mg/kg) over 6 days beginning 2 h after LPS. The mice were either perfused 28 days after LPS injection, or trained and tested in the Morris water maze.
Subjects. All mice used as subjects in this study were treated in accordance with the policies set forth by the Stanford Animal Care and Use Committee and NIH regarding the ethical use of animals for experimentation. CB57BI/6 mice (7 wks old upon arrival from -Taconic) were housed in groups of 4-5 in autoclaved shoebox cages under standard conditions and were given free access to autoclaved Prolab Mouse 3000 chow (PMI Nutrition International, St. Louis, Mo.) and autoclaved tap water. One week after arrival, vehicle- and NSAID-treated mice were given an intraperitoneal (i.p.) injection of sterile saline or lipopolysaccharide (LPS; 5 mg/kg at a concentration of 1 mg/ml isotonic saline; Sigma Aldrich, St. Louis, Mo.) to induce transient illness (Day 0) and daily subcutaneous (s.c.) isotonic saline (0.5 ml) injections (Days 0-3) to prevent illness-induced dehydration. The cell synthesis marker bromodeoxyuridine (BrdU; Sigma Aldrich, St. Louis, Mo.) was injected i.p. (50 mg/kg at a concentration of 10 mg/ml in freshly prepared isotonic saline) once per day for 6 days to label dividing cells, beginning Day 0 (2 h after LPS). The mice were anesthetized with ketamine/xylazine and killed at Days 7 or 28 (to assess hippocampal neurogenesis during illness and just before behavioral testing, respectively) or Day 80 (to measure hippocampal neurogenesis following behavioural testing) by perfusion with 4% paraformaldehyde. Brains were post-fixed overnight in perfusate, microtome sectioned at 40 μm through the hippocampus and stored in tissue cryoprotectant solution at −20° C. until processed immunohistochemically.
NSAID treatment. […]
The subject of series [2] is C57BI/6 mice. Nature of the series: Locomotor chambers and Morris water maze after LPS in mice. The conditions noted are these: for effect of NSAID on LPS-induced impairment of probe trial performance: oral NSAID course, training from Day 28. How it is done:
Behavioral testing. Locomotor activity was measured in 17×17 inch chambers lined with three 16-beam infrared arrays in photocell boxes (MED Associates, Inc., St. Albans, Vt.). The mice were placed into the chambers and their locomotor activity was recorded for 20 minutes 4 days after LPS was injected (on Day 4). A 50 msec scanning rate was used for measuring beams broken. Distance traveled was analyzed for estimates of locomotion based on the movement of a given distance and resting delay (movement in a given period) using Open Field Activity software (MED Associates, Inc., St. Albans, Vt.).
Hippocampus-dependent learning and memory was assessed in the standard Morris water maze task. All hippocampus-dependent training and testing was conducted in a black circular tank (170 cm diameter×43 cm height) filled water made opaque using white non-toxic Tempra paint (Rich Art Color Co. Inc, Northvale, Calif.; training and testing). A platform (13 cm diameter×28.5 cm height) was hidden 1 cm below the water surface for platform shaping and training trials. Time and distance traveled in the pool was recorded using Videotrack Automated Behavioral Analysis System (Viewpoint Life Sciences Inc., Otterburn Park, Quebec).
Platform shaping began three days before platform training (Days 25-27). In the absence of extra-maze cues, mice were released from random points in the pool (filled with clearwater) near the platform and gently guided to the platform. Shaping trials continued until the mouse remained on the platform for 15 s over 3 consecutive trials on each of the three sessions.
[…] In the presence of extra-maze cues, the mice were released from the middle of the east, south, or west quadrant, facing the pool wall, and were given 120 s to find the platform hidden beneath opaque water in the center of the north quadrant. […] Sessions of 6 training trials (inter-trial interval of approximately 30 min) were conducted daily until all the mice located the platform in an average of 15 s or less within a session. […] Pathlength and latency were analyzed as measures of learning, swim speed was analyzed as a measure of sensorimotor ability and % time spent in outer annulus was analyzed as a measure of anxiety.
Probe Trial Testing was conducted at 1 week after mice reached criterion in the platform training phase of the experiment. The room setup was identical for platform training and probe trials, with the exception that the platform was removed from the pool during probe trials. The mice were given a single trial in which they were released from the center of the pool and then after 3 minutes were removed from the location that held the platform during training trials. Percent time and distance spent in each quadrant were analyzed as measures of memory, swim speed and total distance swum were analyzed as measures of sensorimotor ability and % time and distance spent in the outer annulus were analyzed as measures of anxiety. After the last probe trial, we ran four daily sessions of reversal trials (4 trials per session) in which mice were given 120 s to locate the platform hidden beneath opaque water in the south quadrant to better interpret whether probe trial performance was indicative of memory or perseveration. […] A visible platform session (2 trials) was administered after the final reversal trial to further test sensorimotor ability. Reversal and visible platform trial performance was scored identically to platform training performance.

Series [3] can be described thus: Sickness behavior and weight loss after LPS in mice. The conditions noted are these: for effect of NSAID on LPS-induced sickness behavior and weight loss: oral NSAID course. The source says: LPS-induced transient illness is associated with mild but persistent memory impairment. Hippocampal neurogenesis, a phenomenon that persists throughout life in men and mice alike, has been linked to learning and memory by several groups. Manipulations that chronically deplete hippocampal neurogenesis produce concomitant impairments in cognition, particularly hippocampus-dependent memory. […] To determine whether LPS-induced illness affects learning and/or memory during either the acute recovery phase or in asymptomatic mice, a single 0 or 5 mg/kg injection of LPS was administered with daily subcutaneous saline injections over 4 days to maintain hydration and their behavior examined in locomotor chambers and/or the Morris water maze task either in the week following treatment or beginning 4 weeks after treatment when the decrease in net neurogenesis is most apparent.
Subjects. All mice used as subjects in this study were treated in accordance with the policies set forth by the Stanford Animal Care and Use Committee and NIH regarding the ethical use of animals for experimentation. CB57BI/6 mice (7 wks old upon arrival from -Taconic) were housed in groups of 4-5 in autoclaved shoebox cages under standard conditions and were given free access to autoclaved Prolab Mouse 3000 chow (PMI Nutrition International, St. Louis, Mo.) and autoclaved tap water. […] Louis, Mo.) to induce transient illness (Day 0) and daily subcutaneous (s.c.) isotonic saline (0.5 ml) injections (Days 0-3) to prevent illness-induced dehydration. The cell synthesis marker bromodeoxyuridine (BrdU; Sigma Aldrich, St. Louis, Mo.) was injected i.p. (50 mg/kg at a concentration of 10 mg/ml in freshly prepared isotonic saline) once per day for 6 days to label dividing cells, beginning Day 0 (2 h after LPS). The mice were anesthetized with ketamine/xylazine and killed at Days 7 or 28 (to assess hippocampal neurogenesis during illness and just before behavioral testing, respectively) or Day 80 (to measure hippocampal neurogenesis following behavioural testing) by perfusion with 4% paraformaldehyde. Brains were post-fixed overnight in perfusate, microtome sectioned at 40 μm through the hippocampus and stored in tissue cryoprotectant solution at −20° C. until processed immunohistochemically.

Where [4] appears, read: LPS 5 mg/kg, listed as Indomethacin.

In the case of `COc1ccc2c(c1)c(CC(=O)O)c(C)n2C(=O)c1ccc(Cl)cc1` [indomethacin], in series [1], the “effect on LPS-induced deficit in fraction of newborn cells adopting a neuronal fate (DCX and/or NeuN) by Day 28” value is “attenuated, but did not completely reverse this deficit; also recorded: attenuated this deficit”. For the same compound, in series [1] (Day 28), the “effect on LPS-induced reduction of transition state and mature neurons” value is “partially reversed the effects of LPS”. Also, the “effect of NSAID on LPS-induced impairment of probe trial performance” value in series [2] (LPS 5 mg/kg) is recorded as “partially attenuated”; in series [2] (setting [4]), “reversed the effects of LPS on probe trial performance”. Moreover, the “effect of NSAID on LPS-induced sickness behavior and weight loss” value was “not significantly attenuated” in series [3] (LPS 5 mg/kg) and “not significantly affected” in series [3] (setting [4]).

Consider lipopolysaccharide [LPS], for which the “total distance explored and duration spent exploring a novel chamber vs vehicle” value in series [2] (LPS 5 mg/kg, Day 4) is given as “significantly smaller”. Also, the “learning and remembering hidden platform position vs control, acute phase recovery” value in series [2] (LPS 5 mg/kg, training from Day 7) was “equally efficient”. The “probe trial time in platform quadrant vs control” value in series [2] (training commenced 4 weeks after LPS) is recorded as “significantly smaller amount of time; also recorded: significantly less time”. The “days to recovery of body weight” value was 4 days in series [3] (LPS 5 mg/kg), 5 days in series [3] (LPS 7.5 mg/kg) and 6 days in series [3] (LPS 10 mg/kg). The “onset of sickness behavior (hunching, piloerection, sweaty fur)” value in series [3] (after LPS injection) is 1 to 2 h. The “day by which weight loss is fully restored” value in series [3] (lowest LPS dose tested) is at most 6 days. Moreover, the “loss of body weight” value in series [3] (lowest LPS dose tested (titration 5-10 mg/kg)) is on record as “roughly 20%”. Besides, in series [3] (within 2 d following LPS injection), the “loss of body mass” value is recorded as “approximately 10%”.
